The source of these data is patent EP3345917A1, “ANTIPROTOZOAL COMPOUNDS” (Bacoba AG, priority 2017, dated 2018).

The subject of data set [1] is Axenically grown Leishmania donovani amastigotes (strain MHOM/ET/67/L82). The data set is described as follows: Axenic Leishmania donovani amastigote resazurin assay. The format is cell-based. The following applies: In vitro inhibition, read-out: L.don. ax. The essentials: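 Strain MHOM/ET/67/L82 amastigotes grown axenically and tested in triplicate by resazurin assay. Plates developed 2-4 hours, fluorescence read at 536 nm excitation/588 nm emission and expressed as percentage of negative control.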

For data set [2], the system named is intracellular Leishmania donovani (L.don. InMac). The data set is described as follows: Intracellular Leishmania donovani assay (L.don. InMac). The format is cell-based. The settings on record: In vitro inhibition. The text has this:
(§1) Tests were done in triplicate.

The subject of data set [3] is Trypanosoma brucei rhodesiense (STIB 900 strain). The data set is described as follows: Alamar Blue assay against Trypanosoma brucei rhodesiense grown in axenic medium. The settings on record: In vitro inhibition, read-out: T.b.rhod. The format is cell-based. The essentials: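 T. b. rhodesiense STIB 900 cultured in axenic medium and exposed to samples in an Alamar Blue viability assay, run in triplicate. IC50 calculated from the readout; melarsoprol served as reference drug.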

Another data set concerns Plasmodium falciparum. Put plainly: 3H-hypoxanthine incorporation assay against Plasmodium falciparum. The format is cell-based. The following applies: In vitro inhibition, read-out: P.falc NF5. The method, then: as §1
IC50 values were calculated by linear interpolation.

Data set [4] relates to Trypanosoma cruzi trypomastigote forms (Tulahuen strain). Put plainly: Intracellular Trypanosoma cruzi assay in L6-cells, beta-galactosidase/CPRG readout. The format is cell-based. The settings on record: In vitro inhibition, read-out: T.cruzi. The essentials: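 L6 rat myoblasts infected with Tulahuen C2C4 LacZ T. cruzi; after incubation, CPRG/Nonidet substrate added and colour developed 2–6 h. Absorbance at 540 nm; IC50 calculated; triplicate tests.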

Data set [5] in a line: Cytotoxicity assay on L6-cells (Alamar Blue). The settings on record: rat, Cytotox L6, Cytotoxicity against rat myoblast cells (L6).

Non-standard residues stand in square brackets, D forms with d. Residues, ends and D or L forms follow the SMILES beside them. *: point of attachment. Hexenoyl(2E,4S-Me) = CC[C@H](C)/C=C/C(=O)*; Leu(3R-OH) = CC(C)[C@@H](O)[C@H](N)C(=O)O; NH((S)CH(Me)CH2NMe2) = C[C@@H](CN(C)C)N*; Pro(4S-Me) = C[C@@H]1CN[C@H](C(=O)O)C1; dGly(nOct) = CCCCCCCC[C@@H](N)C(=O)O; Gly(octyl) = CCCCCCCC[C@H](N)C(=O)O; Nva(5-OH) = N[C@@H](CCCO)C(=O)O; NH(CH2)3NMe2 = CN(C)CCCN*; Hexanoyl = CCCCCC(=O)*; Aib = CC(C)(N)C(=O)O; X7 = CN(C)CC(C)(C)N*; X9 = c1ccn(CCN*)c1; βAla = NCCC(=O)O

Take `CCCCCCCC[C@@H](NC(=O)[C@H]1CCCN1C(=O)CCCCC)C(=O)N[C@H](CC(C)C)C(=O)NC(C)(C)C(=O)N[C@H](CC(C)C)C(=O)N[C@H](CC(C)C)C(=O)NC(C)(C)C(=O)NC(C)(C)C(=O)NCCC(=O)N[C@@H](C)CN(C)C` [Compound 5849, (2R)-N-[(1R)-1-[(1-{[(1R)-1-{[(1R)-1-{[1-({1-[(2-{[(2S)-1-(dimethylamino)propan-2-yl]carbamoyl}ethyl)carbamoyl]-1-methylethyl}carbamoyl)-1-methylethyl]carbamoyl}-3-methylbutyl]carbamoyl}-3-methylbutyl]carbamoyl}-1-methylethyl)carbamoyl]-3-methylbutyl]-2-{[(2R)-1-hexanoylpyrrolidin-2-yl]formamido}decanamide] (Hexanoyl-[dP][dGly(nOct)][dL][Aib][dL][dL][Aib][Aib][βAla]-{NH((S)CH(Me)CH2NMe2)}): the IC50 in data set [1] stood at 3.5 nM; in data set [2], 67.1 nM; in data set [3], 55.6 nM; in the data set with Plasmodium falciparum it was 7.5 nM; in data set [4] it was 257 nM. Also, the IC50 at 70 h in data set [5] stood at 1070 nM.

Take `CC[C@H](C)/C=C/C(=O)N1C[C@@H](C)C[C@H]1C(=O)N[C@@H](CCCO)C(=O)N[C@H](C(=O)NC(C)(C)C(=O)N[C@@H](CC(C)C)C(=O)N[C@@H](CC(C)C)C(=O)NC(C)(C)C(=O)NC(C)(C)C(=O)NCCC(=O)N[C@@H](C)CN(C)C)[C@H](O)C(C)C` [Compound 5496, (2S,3R)-N-(1-{[(1S)-1-{[(1S)-1-{[1-({1-[(2-{[(2S)-1-(dimethylamino)propan-2-yl]carbamoyl}ethyl)carbamoyl]-1-methylethyl}carbamoyl)-1-methylethyl]carbamoyl}-3-methylbutyl]carbamoyl}-3-methylbutyl]carbamoyl}-1-methylethyl)-3-hydroxy-2-[(2S)-5-hydroxy-2-{[(2S,4S)-4-methyl-1-[(2E,4S)-4-methylhex-2-enoyl]pyrrolidin-2-yl]formamido}pentanamido]-4-methylpentanamide] ({Hexenoyl(2E,4S-Me)}-[Pro(4S-Me)][Nva(5-OH)][Leu(3R-OH)][Aib]LL[Aib][Aib][βAla]-{NH((S)CH(Me)CH2NMe2)}): the IC50 in data set [1] came to 467 nM; in data set [2], 2680 nM; in data set [3] it was 6.2 nM; in the data set with Plasmodium falciparum, 660 nM; in data set [4], 5110 nM. This molecule registered an IC50 at 70 h in data set [5] of 5220 nM.

Turning to `CCCCCCCC[C@H](NC(=O)[C@@H]1CCCN1C(=O)CCCCC)C(=O)N[C@@H](CC(C)C)C(=O)NC(C)(C)C(=O)N[C@@H](CC(C)C)C(=O)N[C@@H](CC(C)C)C(=O)NC(C)(C)C(=O)NC(C)(C)C(=O)NCCC(=O)NCCn1cccc1` [Compound 5887, (2S)-2-{[(2S)-1-hexanoylpyrrolidin-2-yl]formamido}-N-[(1S)-3-methyl-1-[(1-methyl-1-{[(1S)-3-methyl-1-{[(1S)-3-methyl-1-{[1-methyl-1-({1-methyl-1-[(2-{[2-(1H-pyrrol-1-yl)ethyl]carbamoyl}ethyl)carbamoyl]ethyl}carbamoyl)ethyl]carbamoyl}butyl]carbamoyl}butyl]carbamoyl}ethyl)carbamoyl]butyl]decanamide] (Hexanoyl-P[Gly(octyl)]L[Aib]LL[Aib][Aib][βAla]-X9), the IC50 stood at 35500 nM in data set [1]; 41.7 nM in data set [2]; 46800 nM in data set [3]; 42700 nM in the data set with Plasmodium falciparum; 262 nM in data set [4]. In addition, the IC50 at 70 h in data set [5] stood at 479 nM.

`CCCCCCCC[C@H](NC(=O)[C@@H]1CCCN1C(=O)CCCCC)C(=O)N[C@H](C(=O)NC(C)(C)C(=O)N[C@@H](CC(C)C)C(=O)N[C@@H](CC(C)C)C(=O)NC(C)(C)C(=O)NC(C)(C)C(=O)NCCC(=O)N[C@@H](C)CN(C)C)[C@@H](C)O` [Compound 5604, (2S)-N-[(1S,2R)-1-[(1-{[(1S)-1-{[(1S)-1-{[1-({1-[(2-{[(2S)-1-(dimethylamino)propan-2-yl]carbamoyl}ethyl)carbamoyl]-1-methylethyl}carbamoyl)-1-methylethyl]carbamoyl}-3-methylbutyl]carbamoyl}-3-methylbutyl]carbamoyl}-1-methylethyl)carbamoyl]-2-hydroxypropyl]-2-{[(2S)-1-hexanoylpyrrolidin-2-yl]formamido}decanamide] (Hexanoyl-P[Gly(octyl)]T[Aib]LL[Aib][Aib][βAla]-{NH((S)CH(Me)CH2NMe2)}): the IC50 in data set [1] stood at 4 nM; in data set [2] it was 228 nM; in data set [3], 0.8 nM; in the data set with Plasmodium falciparum, 3.6 nM; in data set [4], 426 nM. The same molecule had an IC50 at 70 h in data set [5] of 1290 nM.

On to `CCCCCCCC[C@H](NC(=O)[C@@H]1CCCN1C(=O)CCCCC)C(=O)N[C@@H](CC(C)C)C(=O)NC(C)(C)C(=O)N[C@@H](CC(C)C)C(=O)N[C@@H](CC(C)C)C(=O)NC(C)(C)C(=O)NC(C)(C)C(=O)NCCC(=O)NC(C)(C)CN(C)C` [Compound 5889, (2S)-N-[(1S)-1-[(1-{[(1S)-1-{[(1S)-1-{[1-({1-[(2-{[1-(dimethylamino)-2-methylpropan-2-yl]carbamoyl}ethyl)carbamoyl]-1-methylethyl}carbamoyl)-1-methylethyl]carbamoyl}-3-methylbutyl]carbamoyl}-3-methylbutyl]carbamoyl}-1-methylethyl)carbamoyl]-3-methylbutyl]-2-{[(2S)-1-hexanoylpyrrolidin-2-yl]formamido}decanamide] (Hexanoyl-P[Gly(octyl)]L[Aib]LL[Aib][Aib][βAla]-X7), for which the IC50 in data set [1] amounted to 11100 nM; in data set [2], 86.5 nM; in data set [3], 15.9 nM; in the data set on Plasmodium falciparum it was 199 nM; in data set [4], 248 nM. In addition, the IC50 at 70 h in data set [5] was determined as 959 nM.

As to `CCCCCCCC[C@H](NC(=O)[C@@H]1CCCN1C(=O)CCCCC)C(=O)N[C@@H](CC(C)C)C(=O)NC(C)(C)C(=O)N[C@@H](CC(C)C)C(=O)N[C@@H](CC(C)C)C(=O)NC(C)(C)C(=O)NC(C)(C)C(=O)NCCC(=O)NCCCN(C)C` [Compound 5890, (2S)-N-[(1S)-1-[(1-{[(1S)-1-{[(1S)-1-{[1-({1-[(2-{[3-(dimethylamino)propyl]carbamoyl}ethyl)carbamoyl]-1-methylethyl}carbamoyl)-1-methylethyl]carbamoyl}-3-methylbutyl]carbamoyl}-3-methylbutyl]carbamoyl}-1-methylethyl)carbamoyl]-3-methylbutyl]-2-{[(2S)-1-hexanoylpyrrolidin-2-yl]formamido}decanamide] (Hexanoyl-P[Gly(octyl)]L[Aib]LL[Aib][Aib][βAla]-{NH(CH2)3NMe2}), the IC50 stood at 0.7 nM in data set [1]; 42500 nM in data set [2]; 44200 nM in data set [3]; 0.2 nM in the data set with Plasmodium falciparum; 44 nM in data set [4]. For the same molecule, the IC50 at 70 h in data set [5] was determined as 592 nM.

As to `CCCCCCCC[C@H](NC(=O)[C@@H]1CCCN1C(=O)/C=C/[C@@H](C)CC)C(=O)N[C@@H](CC(C)C)C(=O)NC(C)(C)C(=O)N[C@@H](CC(C)C)C(=O)N[C@@H](CC(C)C)C(=O)NC(C)(C)C(=O)NC(C)(C)C(=O)NCCC(=O)N[C@@H](C)CN(C)C` [Compound 5562, (2S)-N-[(1S)-1-[(1-{[(1S)-1-{[(1S)-1-{[1-({1-[(2-{[(2S)-1-(dimethylamino)propan-2-yl]carbamoyl}ethyl)carbamoyl]-1-methylethyl}carbamoyl)-1-methylethyl]carbamoyl}-3-methylbutyl]carbamoyl}-3-methylbutyl]carbamoyl}-1-methylethyl)carbamoyl]-3-methylbutyl]-2-{[(2S)-1-[(2E,4S)-4-methylhex-2-enoyl]pyrrolidin-2-yl]formamido}decanamide] ({Hexenoyl(2E,4S-Me)}-P[Gly(octyl)]L[Aib]LL[Aib][Aib][βAla]-{NH((S)CH(Me)CH2NMe2)}), the IC50 in data set [1] stood at 1.3 nM; in data set [2], 22.3 nM; in data set [3], 0.5 nM; in the data set with Plasmodium falciparum, 0.3 nM; in data set [4], 40.6 nM. This molecule also returned an IC50 at 70 h in data set [5] of 459 nM.

For `CCCCCCCC[C@H](NC(=O)[C@@H]1CCCN1C(=O)CCCCC)C(=O)N[C@H](C(=O)NC(C)(C)C(=O)N[C@@H](CC(C)C)C(=O)N[C@@H](CC(C)C)C(=O)NC(C)(C)C(=O)NC(C)(C)C(=O)NCCC(=O)N[C@@H](C)CN(C)C)[C@H](O)C(C)C` [Compound 5517, (2S)-N-[(1S,2R)-1-[(1-{[(1S)-1-{[(1S)-1-{[1-({1-[(2-{[(2S)-1-(dimethylamino)propan-2-yl]carbamoyl}ethyl)carbamoyl]-1-methylethyl}carbamoyl)-1-methylethyl]carbamoyl}-3-methylbutyl]carbamoyl}-3-methylbutyl]carbamoyl}-1-methylethyl)carbamoyl]-2-hydroxy-3-methylbutyl]-2-{[(2S)-1-hexanoylpyrrolidin-2-yl]formamido}decanamide] (Hexanoyl-P[Gly(octyl)][Leu(3R-OH)][Aib]LL[Aib][Aib][βAla]-{NH((S)CH(Me)CH2NMe2)}), the IC50 stood at 0.9 nM in data set [1]; 142 nM in data set [2]; 0.1 nM in data set [3]; 1.1 nM with Plasmodium falciparum; 45.3 nM in data set [4]. In data set [5], this molecule yielded an IC50 at 70 h of 338 nM.
